# Counter-ions that a name gives are not always drawn.
# Molecular target: T1, HCV NS3 protease (full length NS34a) (Hepatitis C virus genotype 1b, UniProt P26663)
# T1 construct: The protease activity of the full length NS34a was measured using a FRET-based assay; made in house
# Test: HCV NS3 protease assay (FRET, full length NS34a)
# Type: biochemical
# Conditions: IC50 values of 10-150 μM against the protease activity of the full length NS34a, or at least 40% inhibition of protease activity at a concentration of 100 μM
# Protocol: The HCV NS3 protease functions have been extensively studied and are considered as potential targets for antiviral therapy: see for example the many references listed in the introductory section of this application. Therefore, the activity of the compounds of the invention as anti-HCV agents was assessed using a full length HCV NS3 protease.
# The protease activity of the full length NS34a was measured using a FRET-based assay utilizing a peptide substrate derived from the NS4AB cleavage site (Anaspec) and labelled at one end with a quencher (QXL520) and at the other with a fluorophore (5-FAMsp). NS34a (produced in-house by literature methods) was incubated with test compounds and peptide substrate in 50 mM Tris pH8, 20 mM DTT, 1% CHAPS, 10% glycerol and 5% DMSO. The reaction was followed by monitoring the change in fluorescence on a Molecular Devices Gemini plate reader for 30 minutes at room temperature. Initial rates were calculated from the progress curves using SoftMax Pro (Molecular Devices). IC50 values were then calculated from replicate curves using Prism GraphPad software.
# T1 sequence (P26663 1658-1711): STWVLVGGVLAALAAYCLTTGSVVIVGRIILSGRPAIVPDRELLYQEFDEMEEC
# T1 sequence (P26663 1027-1657): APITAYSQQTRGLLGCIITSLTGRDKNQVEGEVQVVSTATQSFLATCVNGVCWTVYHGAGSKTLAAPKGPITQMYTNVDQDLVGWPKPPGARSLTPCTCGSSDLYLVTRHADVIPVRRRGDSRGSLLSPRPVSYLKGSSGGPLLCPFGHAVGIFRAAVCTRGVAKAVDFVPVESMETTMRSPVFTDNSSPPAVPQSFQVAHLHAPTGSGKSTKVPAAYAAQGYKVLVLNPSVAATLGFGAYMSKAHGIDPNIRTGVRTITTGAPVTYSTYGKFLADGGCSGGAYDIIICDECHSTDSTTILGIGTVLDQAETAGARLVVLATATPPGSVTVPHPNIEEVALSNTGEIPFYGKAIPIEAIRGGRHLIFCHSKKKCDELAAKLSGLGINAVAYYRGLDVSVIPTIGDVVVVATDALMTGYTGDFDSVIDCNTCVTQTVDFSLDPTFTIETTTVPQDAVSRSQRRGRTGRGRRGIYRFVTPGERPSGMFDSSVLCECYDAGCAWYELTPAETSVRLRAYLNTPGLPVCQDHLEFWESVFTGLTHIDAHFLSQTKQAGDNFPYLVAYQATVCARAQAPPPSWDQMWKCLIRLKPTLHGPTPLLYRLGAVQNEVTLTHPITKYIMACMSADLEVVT
row,IC50 [µM],Compound
1,10 to 150,CC[C@@H](N[C@H](C)CC(N)=O)c1ccc(Cl)c(Oc2ccc(C#N)nc2)c1F [Example 247]
2,10 to 150,CC[C@@H](N[C@@H](C)CC(=O)N[C@H]1C[C@@H](N)C1)c1ccc(Cl)c(Oc2ccccc2)c1F [Example 320]
3,10 to 150,"NC(CC(=O)Nc1ccncc1)c1ccc(F)c(Oc2ccccc2)c1F (centres unmarked) [Example 20, 3-Amino-3-(2,4-difluoro-3-phenoxy-phenyl)-N-pyridin-4-yl-propionamide. dihydrochloride]"
4,10 to 150,C[C@H](CC(N)=O)N[C@H](CCO)c1ccc(Cl)c(Oc2ccccc2)c1F [Example 353]
5,10 to 150,CC[C@@H](N[C@H](C)CC(=O)N[C@@H](C)CO)c1ccc(Cl)c(Oc2ccccc2)c1F [Example 205]
6,10 to 150,N[C@@H](c1ccc(F)c(Oc2ccccc2)c1F)[C@@H]1CCC(=O)NC1 [Example 74B]
7,10 to 150,"NC(c1cccnc1)c1ccc(F)c(Oc2ccccc2)c1F (centres unmarked) [Example 59A, C-(2,4-Difluoro-3-phenoxy-phenyl)-C-pyridin-3-yl-methylamine. dihydrochloride]"
8,10 to 150,"CCC(NCCOC)c1ccc(F)c(Oc2ccccc2)c1F (centres unmarked) [Example 42, [1-(2,4-Difluoro-3-phenoxy-phenyl)-propyl]-(2-methoxy-ethyl)-amine. hydrochloride]"
9,10 to 150,C[C@@H](N)c1ccc(Cl)c(Oc2ccccc2)c1F [Example 341]
10,10 to 150,"CC[C@@H](N[C@H](C)CC(N)=O)c1ccc(Cl)c(Oc2ccc(C(N)=O)nc2)c1F [Example 248, 5-{3-[(R)-1-((R)-2-Carbamoyl-1-methyl-ethylamino)-propyl]-6-chloro-2-fluoro-phenoxy}-pyridine-2-carboxylic acid amide.hydrochloride]"
11,10 to 150,CC[C@@H](N[C@H](C)CC(=O)NC(C)C)c1ccc(Cl)c(Oc2ccccc2)c1F [Example 304]
12,10 to 150,C[C@H](CC(N)=O)N[C@@H](CC1CCOCC1)c1ccc(Cl)c(Oc2ccccc2)c1F [Example 258]
13,10 to 150,CCC(NC(C)C1CC1)c1ccc(F)c(Oc2ccccc2)c1F (centres unmarked) [Example 36]
14,10 to 150,CCC(NC(C)COC)c1ccc(F)c(Oc2ccccc2)c1F (centres unmarked) [Example 51]
15,10 to 150,C[C@H](CC(N)=O)N[C@H](C)c1ccc(Cl)c(Oc2ccccc2)c1F [Example 335]
16,10 to 150,CCC(NCc1ccc[nH]1)c1ccc(F)c(Oc2ccccc2)c1F (centres unmarked) [Example 291]

# Same assay, conditions: protease activity of full length NS34a, FRET peptide substrate; read-out: Activity IC50
row,IC50 [µM],Compound
1,0.63,"CC[C@H](N)c1ccc(Cl)c(Oc2cccc(C(=O)N(C)Cc3cnn(Cc4ccccc4)c3)c2)c1F [Example 138, 3-[3-((S)-1-Amino-propyl)-6-chloro-2-fluoro-phenoxy]-N-(1-benzyl-1H-pyrazol-4-ylmethyl)-N-methyl-benzamide.hydrochloride]"
2,1.8,CCCCC(N)c1ccc(F)c(Oc2ccccc2)c1F (centres unmarked) [Example 10]
3,2.6,C[C@@H](CC(N)=O)N[C@@H](CCO)c1ccc(Cl)c(Oc2ccccc2)c1F [Example 350]
4,0.36,CC[C@H](N[C@@H](C)c1c[nH]cn1)c1ccc(Cl)c(Oc2ccccc2)c1F [Example 129]
5,7.7,"CC[C@@H](N)c1ccc(Cl)c(Oc2cccc(NC(=O)NCC(F)(F)F)c2)c1F [Example 171, 1-{3-[3-((R)-1-Amino-propyl)-6-chloro-2-fluoro-phenoxy]-phenyl}-3-(2,2,2-trifluoro-ethyl)-urea.hydrochloride]"
6,1.1,"CC[C@H](Nc1cccc2c1CNC2)c1ccc(F)c(Oc2ccccc2)c1F [Example 136, [(S)-1-(2,4-Difluoro-3-phenoxy-phenyl)-propyl]-(2,3-dihydro-1H-isoindol-4-yl)-amine.hydrochloride]"
7,2.3,CC[C@@H](N)c1ccc(Cl)c(Oc2cccc(S(C)(=O)=O)c2)c1F [Example 170]
8,5.7,"N[C@H](CCF)c1ccc(Cl)c(Oc2ccccc2)c1F [Example 357, (R)-1-(4-Chloro-2-fluoro-3-phenoxy-phenyl)-3-fluoro-propylamine.hydrochloride]"
9,6.8,CC[C@@H](N)c1ccc(Cl)c(Oc2cccc(C(F)(F)F)c2)c1F [Example 162]
10,6.1,CC[C@@H](N)c1ccc(Cl)c(Oc2ccnc(Cl)c2)c1F [Example 167]
11,2.7,CCC(CC)[C@H](N)c1ccc(Cl)c(Oc2ccccc2)c1F [Example 347]
12,6.9,CCc1ccc(Oc2c(Cl)ccc([C@H](N)CC)c2F)cc1 [Example 187]
13,3.1,CC[C@@H](N[C@H](C)CC(N)=O)c1ccc(Cl)c(Oc2ccc3c(c2)C(C)(C)CN3)c1F [Example 323]
14,3.1,CC[C@@H](N)c1ccc(Cl)c(Oc2cccc(NS(C)(=O)=O)c2)c1F [Example 151]
15,1.8,"CC[C@@H](N)c1ccc(Cl)c(Oc2ccc(F)c(COC(=O)NCC3CC3)c2)c1F [Example 190, Cyclopropylmethyl-carbamic acid 5-[3-((R)-1-amino-propyl)-6-chloro-2-fluoro-phenoxy]-2-fluoro-benzyl ester.hydrochloride]"
16,0.91,C[C@@H](CC(N)=O)N[C@H](CCO)c1ccc(Cl)c(Oc2ccccc2)c1F [Example 358]

row,IC50 [µM],Compound
1,0.72,"CC[C@@H](N)c1ccc(Cl)c(Oc2ccc(/C=N/O)cc2)c1F [Example 204, 4-[3-((R)-1-Amino-propyl)-6-chloro-2-fluoro-phenoxy]-benzaldehyde oxime.hydrochloride]"
2,4.9,CC[C@@H](N[C@H](C)CC(N)=O)c1ccc(Cl)c(Oc2ccc(C#N)c(OC)c2)c1F [Example 209]
3,0.7,"CC[C@H](N)c1ccc(Cl)c(Oc2cccc(C(=O)N3CCCC3)c2)c1F [Example 133, {3-[3-((S)-1-Amino-propyl)-6-chloro-2-fluoro-phenoxy]-phenyl}-pyrrolidin-1-yl-methanone.hydrochloride]"
4,1.5,N[C@H](c1ccc(Cl)c(Oc2ccccc2)c1F)C1CCOCC1 [Example 344]
5,6.4,N[C@@H](c1ccc(Cl)c(Oc2ccccc2)c1F)C1CCOCC1 [Example 356]
6,0.08,C[C@H](CC(=O)NCCN)N[C@H](C)c1ccc(Cl)c(Oc2ccccc2)c1F [Example 340]
7,3.7,CC[C@@H](N)c1ccc(Cl)c(Oc2ccc(C)nc2)c1F [Example 180]
8,1.7,CC[C@@H](N)c1ccc(Cl)c(Oc2ccc(Cl)cc2)c1F [Example 176]
9,3.9,C[C@H](CC(=O)NCCN)N[C@H](CC1CCOCC1)c1ccc(Cl)c(Oc2ccccc2)c1F [Example 278]
10,1.3,"CCNC(=O)O[C@H](C)c1cccc(Oc2c(Cl)ccc([C@@H](N)CC)c2F)c1 [Example 139, Ethyl-carbamic acid (R)-1-{3-[3-((S)-1-amino-propyl)-6-chloro-2-fluoro-phenoxy]-phenyl}-ethyl ester.hydrochloride]"
11,2.3,CC[C@@H](N)c1ccc(Cl)c(Oc2ccc(-c3nnc(C)o3)cc2)c1F [Example 181]
12,1.2,CC[C@@H](N)c1ccc(Cl)c(Oc2ccc(CO)cc2)c1F [Example 183]
13,2.6,CC[C@@H](N)c1ccc(Cl)c(Oc2ccc([N+](=O)[O-])cc2)c1F [Example 197]
14,1.2,"CC[C@H](N)c1ccc(Cl)c(Oc2ccccc2)c1Cl [Example 261, (S)-1-(2,4-Dichloro-3-phenoxy-phenyl)-propylamine.hydrochloride]"
15,6.4,C[C@H](CC(=O)NCCN)N[C@@H](CC1CCOCC1)c1ccc(Cl)c(Oc2ccccc2)c1F [Example 351]
